The values below are quoted from earlier work in patent US20140294923A1, “ACTH FOR TREATMENT OF MIGRAINE HEADACHE” (priority 2013, published 2014).

The data set relates to CGRP release. The following applies: experimental models; Ulrich-Lai 2001.

As to “ACTH (SYSMEHFRWGKPVGKKRRPVKVYPDGAEDQLAEAFPLEF)”, the “release of CGRP” value is given as “inhibit the release of CGRP”.
